One assay addresses human PDE-5A1 (Homo sapiens, UniProt O76074). Nature of the assay: Human PDE-5A1 inhibition assay (fluorescence polarization, FAM-cGMP). It counts as biochemical. In general terms: In fluorescence polarisation assays a small probe gives low polarisation when free and higher when bound to something large.
The target in the next assay is human PDE-6C (Homo sapiens, UniProt P51160). In words: Human PDE-6C inhibition assay (fluorescence polarization, FAM-cGMP). It counts as biochemical.
Sequence of human PDE-6C (P51160 whole entry): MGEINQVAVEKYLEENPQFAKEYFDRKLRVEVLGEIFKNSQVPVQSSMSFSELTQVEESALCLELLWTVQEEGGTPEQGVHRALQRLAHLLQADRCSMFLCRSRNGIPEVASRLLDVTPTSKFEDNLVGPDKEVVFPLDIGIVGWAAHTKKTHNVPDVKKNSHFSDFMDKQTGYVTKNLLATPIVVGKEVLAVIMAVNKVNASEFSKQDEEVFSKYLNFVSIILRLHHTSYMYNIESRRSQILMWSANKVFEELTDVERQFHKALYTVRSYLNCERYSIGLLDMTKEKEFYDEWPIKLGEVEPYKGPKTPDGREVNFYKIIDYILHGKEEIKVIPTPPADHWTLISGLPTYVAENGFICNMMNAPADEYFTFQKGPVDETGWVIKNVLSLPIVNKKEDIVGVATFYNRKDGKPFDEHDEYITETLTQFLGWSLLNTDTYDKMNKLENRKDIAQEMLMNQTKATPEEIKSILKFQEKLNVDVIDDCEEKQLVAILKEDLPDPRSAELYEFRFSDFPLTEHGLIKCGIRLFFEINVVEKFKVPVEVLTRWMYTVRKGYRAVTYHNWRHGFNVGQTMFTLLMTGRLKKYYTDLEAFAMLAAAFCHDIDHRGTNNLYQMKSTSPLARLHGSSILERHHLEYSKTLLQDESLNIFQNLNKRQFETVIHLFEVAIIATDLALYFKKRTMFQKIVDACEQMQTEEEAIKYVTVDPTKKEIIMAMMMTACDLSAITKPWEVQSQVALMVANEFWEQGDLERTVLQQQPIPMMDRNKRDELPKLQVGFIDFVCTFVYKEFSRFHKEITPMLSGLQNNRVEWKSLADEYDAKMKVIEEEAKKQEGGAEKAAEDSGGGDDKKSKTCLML

Read-outs that look alike come from different tables or passages of the source.

As for `CCCc1nn(C)c2c(=O)[nH]c(-c3cc(S(=O)(=O)N4CC(N5CC(O)C5)C4)ccc3OCC)nc12` [Compound 31, 5-(2-ethoxy-5-((3-hydroxy-[1,3′-biazetidin]-1′-yl)sulfonyl)phenyl)-1-methyl-3-propyl-1,6-dihydro-7H-pyrazolo [4,3-d]pyrimidin-7-one], the IC50 is 0.01 to 0.1 µM on human PDE-5A1 (read-out: IC50 (μM) PDE5A1) and less than 0.01 µM on human PDE-6C (read-out: IC50 (μM) PDE6C).
Regarding `CCCc1nn(C)c2c(=O)[nH]c(-c3cc(S(=O)(=O)N4CC(N5CC(CO)C5)C4)ccc3OCC)nc12` [Compound 32, 5-(2-ethoxy-5-((3-(hydroxymethyl)-[1,3′-biazetidin]-1′-yl)sulfonyl)phenyl)-1-methyl-3-propyl-1,6-dihydro-7H-pyrazolo[4,3-d]pyrimidin-7-one], the IC50 is less than 0.01 µM on human PDE-5A1 (read-out: IC50 (μM) PDE5A1) and 0.01 to 0.1 µM at human PDE-6C (read-out: IC50 (μM) PDE6C).
On to `CCCc1nn(C)c2c(=O)[nH]c(-c3cc(S(=O)(=O)N4CC(N5CC(CCO)C5)C4)ccc3OCC)nc12` [Compound 33, 5-(2-ethoxy-5-((3-(2-hydroxyethyl)-[1,3′-biazetidin]-1′-yl)sulfonyl)phenyl)-1-methyl-3-propyl-1,6-dihydro-7H-pyrazolo[4,3-d]pyrimidin-7-one], for which the IC50 on human PDE-5A1 (read-out: IC50 (μM) PDE5A1) and on human PDE-6C (read-out: IC50 (μM) PDE6C) was less than 0.01 µM in each case.
`CCCc1nn(C)c2c(=O)[nH]c(-c3cc(S(=O)(=O)N4CC(OCCO[N+](=O)[O-])C4)ccc3OCC)nc12` [Compound 34, 2-((1-((4-ethoxy-3-(1-methyl-7-oxo-3-propyl-6,7-dihydro-1H-pyrazolo[4,3-d]pyrimidin-5-yl)phenyl)sulfonyl)azetidin-3-yl)oxy)ethyl nitrate]: the IC50 is 0.01 to 0.1 µM on human PDE-5A1 (read-out: IC50 (μM) PDE5A1) and less than 0.01 µM on human PDE-6C (read-out: IC50 (μM) PDE6C).
With `CCCc1nn(C)c2c(=O)[nH]c(-c3cc(S(=O)(=O)N4CC(OCCCO[N+](=O)[O-])C4)ccc3OCC)nc12` [Compound 35, 3-((1-((4-ethoxy-3-(1-methyl-7-oxo-3-propyl-6,7-dihydro-1H-pyrazolo[4,3-d]pyrimidin-5-yl)phenyl)sulfonyl)azetidin-3-yl)oxy)propyl nitrate], the values for the IC50 at human PDE-5A1 (read-out: IC50 (μM) PDE5A1) and at human PDE-6C (read-out: IC50 (μM) PDE6C) were 0.01 to 0.1 µM and less than 0.01 µM, respectively.
For the compound `CCCc1nn(C)c2c(=O)[nH]c(-c3cc(S(=O)(=O)N4CC(OCCCCO[N+](=O)[O-])C4)ccc3OCC)nc12` [Compound 36, 4-((1-((4-ethoxy-3-(1-methyl-7-oxo-3-propyl-6,7-dihydro-1H-pyrazolo[4,3-d]pyrimidin-5-yl)phenyl)sulfonyl)azetidin-3-yl)oxy)butyl nitrate], the IC50 on human PDE-5A1 (read-out: IC50 (μM) PDE5A1) and on human PDE-6C (read-out: IC50 (μM) PDE6C) was 0.01 to 0.1 µM in each case.
For the compound `CCCc1nn(C)c2c(=O)[nH]c(-c3cc(S(=O)(=O)N4CC(CN5CC(CO[N+](=O)[O-])C5)C4)ccc3OCC)nc12` [Compound 37, (1-((1-((4-ethoxy-3-(1-methyl-7-oxo-3-propyl-6,7-dihydro-1H-pyrazolo[4,3-d]pyrimidin-5-yl)phenyl)sulfonyl)azetidin-3-yl)methyl)azetidin-3-yl)methyl nitrate], the IC50 at human PDE-5A1 (read-out: IC50 (μM) PDE5A1) and on human PDE-6C (read-out: IC50 (μM) PDE6C) was 0.01 to 0.1 µM throughout.
For the compound `CCCc1nn(C)c2c(=O)[nH]c(-c3cc(S(=O)(=O)N4CC(N(CCCO[N+](=O)[O-])CCCO[N+](=O)[O-])C4)ccc3OCC)nc12` [Compound 38, ((1-((4-ethoxy-3-(1-methyl-7-oxo-3-propyl-6,7-dihydro-1H-pyrazolo[4,3-d]pyrimidin-5-yl)phenyl)sulfonyl)azetidin-3-yl)azanediyl)bis(propane-3,1-diyl) dinitrate], the IC50 on human PDE-5A1 and against human PDE-6C was 0.01 to 0.1 µM in each case.
For `CCCc1nn(C)c2c(=O)[nH]c(-c3cc(S(=O)(=O)N4CC(N5CC(O[N+](=O)[O-])C5)C4)ccc3OCC)nc12` [Compound 39, 1′-((4-ethoxy-3-(1-methyl-7-oxo-3-propyl-6,7-dihydro-1H-pyrazolo[4,3-d]pyrimidin-5-yl)phenyl)sulfonyl)-[1,3′-biazetidin]-3-yl nitrate], the IC50 at human PDE-5A1 (read-out: IC50 (μM) PDE5A1) and on human PDE-6C (read-out: IC50 (μM) PDE6C) was less than 0.01 µM in each case.
For the compound `CCCc1nn(C)c2c(=O)[nH]c(-c3cc(S(=O)(=O)N4CC(N5CC(CO[N+](=O)[O-])C5)C4)ccc3OCC)nc12` [Compound 40, (1′-((4-ethoxy-3-(1-methyl-7-oxo-3-propyl-6,7-dihydro-1H-pyrazolo[4,3-d]pyrimidin-5-yl)phenyl)sulfonyl)-[1,3′-biazetidin]-3-yl)methyl nitrate], the IC50 at human PDE-5A1 (read-out: IC50 (μM) PDE5A1) was 0.01 to 0.1 µM; at human PDE-6C (read-out: IC50 (μM) PDE6C), less than 0.01 µM.
As to `CCCc1nn(C)c2c(=O)[nH]c(-c3cc(S(=O)(=O)N4CC(CCCOC(=O)CCCCCO[N+](=O)[O-])C4)ccc3OCC)nc12` [Compound 65, 3-(1-((4-ethoxy-3-(1-methyl-7-oxo-3-propyl-6,7-dihydro-1H-pyrazolo[4,3-d]pyrimidin-5-yl)phenyl)sulfonyl)azetidin-3-yl)propyl 6-(nitrooxy)hexanoate], the concentration for half-maximal inhibition (IC50) on human PDE-5A1 (read-out: IC50 (μM) PDE5A1) and at human PDE-6C (read-out: IC50 (μM) PDE6C) was less than 0.01 µM each time.
With `CCCc1nn(C)c2c(=O)[nH]c(-c3cc(S(=O)(=O)N4CC(NCCOC(=O)CCCCO[N+](=O)[O-])C4)ccc3OCC)nc12` [Compound 66, 2-((1-((4-ethoxy-3-(1-methyl-7-oxo-3-propyl-6,7-dihydro-1H-pyrazolo[4,3-d]pyrimidin-5-yl)phenyl)sulfonyl)azetidin-3-yl)amino)ethyl 5-(nitrooxy)pentanoate], the IC50 at human PDE-5A1 (read-out: IC50 (μM) PDE5A1) and on human PDE-6C (read-out: IC50 (μM) PDE6C) was less than 0.01 µM each time.
As to `CCCc1nn(C)c2c(=O)[nH]c(-c3cc(S(=O)(=O)N4CC(N(C)CCOC(=O)CCCCCO[N+](=O)[O-])C4)ccc3OCC)nc12` [Compound 67, 2-((1-((4-ethoxy-3-(1-methyl-7-oxo-3-propyl-6,7-dihydro-1H-pyrazolo[4,3-d]pyrimidin-5-yl)phenyl)sulfonyl)azetidin-3-yl)(methyl)amino)ethyl 6-(nitrooxy)hexanoate], the IC50 at human PDE-5A1 (read-out: IC50 (μM) PDE5A1) and on human PDE-6C (read-out: IC50 (μM) PDE6C) was less than 0.01 µM in each case.
`CCCc1nn(C)c2c(=O)[nH]c(-c3cc(S(=O)(=O)N4CC(CCCOC(=O)CCCCC(CO[N+](=O)[O-])O[N+](=O)[O-])C4)ccc3OCC)nc12` (centres unmarked) [Compound 68, 3-(1-((4-ethoxy-3-(1-methyl-7-oxo-3-propyl-6,7-dihydro-1H-pyrazolo[4,3-d]pyrimidin-5-yl)phenyl)sulfonyl)azetidin-3-yl)propyl 6,7-bis(nitrooxy)heptanoate]: the values for the IC50 against human PDE-5A1 and on human PDE-6C were 0.01 to 0.1 µM and less than 0.01 µM, respectively.
Turning to `CCCc1nn(C)c2c(=O)[nH]c(-c3cc(S(=O)(=O)N4CC(NCCOC(=O)CCCCC(CO[N+](=O)[O-])O[N+](=O)[O-])C4)ccc3OCC)nc12` (centres unmarked) [Compound 69, 2-((1-((4-ethoxy-3-(1-methyl-7-oxo-3-propyl-6,7-dihydro-1H-pyrazolo[4,3-d]pyrimidin-5-yl)phenyl)sulfonyl)azetidin-3-yl)amino)ethyl 6,7-bis(nitrooxy)heptanoate], the IC50 against human PDE-5A1 and at human PDE-6C was less than 0.01 µM each time.
For `CCCc1nn(C)c2c(=O)[nH]c(-c3cc(S(=O)(=O)N4CC(N(C)CCOC(=O)CCCCC(CO[N+](=O)[O-])O[N+](=O)[O-])C4)ccc3OCC)nc12` (centres unmarked) [Compound 70, 2-((1-((4-ethoxy-3-(1-methyl-7-oxo-3-propyl-6,7-dihydro-1H-pyrazolo[4,3-d]pyrimidin-5-yl)phenyl)sulfonyl)azetidin-3-yl)(methyl)amino)ethyl 6,7-bis(nitrooxy)heptanoate], the IC50 on human PDE-5A1 and against human PDE-6C was less than 0.01 µM in each case.

Usually IC50 stands for the concentration that gives 50% inhibition.

Values taken from patent publication US20220153746A1, “NITROGEN OXIDE-DONATING PDE-5 AND/OR PDE-6 INHIBITOR COMPOUNDS, AND USES THEREOF” (ILDONG PHARMACEUTICAL CO., LTD., priority 2020, published 2022).
